{
  "source": "patent US4956381A",
  "about": "“Treating tissue calcium depletion or degenerative processes in bone or cartilage” (Sandoz Ltd., priority 1987, dated 1990)",
  "key": {"[1]": {"test_system": "mouse peritoneal macrophages", "experiment": "Mouse macrophage monokine inhibition (chondrocyte bioassay)", "assay_type": "cell-based", "conditions": "24 h, substantially pure Z-isomeric form, 3-5 separate experiments in triplicate, read-out: ED50 (suppression of monokine release)", "experimental": "Purified IL-1, [Schnyder et al., J. Immunol. […] [c.f. […] J. Rheumatol.\nCulture media are diluted 1:1 (v:v) with fresh medium and added to confluent rabbit chondrocytes. […] activity in the chondrocyte culture medium is monitored after a further two days."}, "recombinant human IL-2": {"test_system": "recombinant human IL-2", "experiment": "Recombinant human IL-2 induced mouse thymocyte proliferation", "assay_type": "cell-based", "conditions": "10 ng/ml rh IL-2", "experimental": "(§1) Lymphocyte proliferation is the standard test for monokine activity. It is highly sensitive, though relatively unspecific, with IL-2, phorbol myristate acetate, concanavalin A' g-type-prostaglandin and indomethacin-nall effecting disturbance. Human monocyte culture media are prepared as described under I.I.b. above, diluted 1:10, 1:20 and 1:40 (v:v), and added to […] (obtained from C3H/HeJ mice) Dulbecco's modified Eagle's medium, containing 20 mM hydroxyethyl-piperazin-ethane-sulfonic acid, 12 mM NaHCO3, 2 mM glutamine, 2% foetal bovine serum, 10 μM 2-mercaptoethanol, […] and antibiotics. The cells are incubated for 2 days in 96-well culture plates and the proliferation rate determined using a ^3 H-thymidine pulse (1 μC/well) during the final 6 hours. The incorporated radioactivity is collected on filter paper and counted. […] Thus determined ED50 s for the compounds D2 and K1 each in substantially pure Z-isomeric form in a series of 2 separate experiments each with 3 parallel determinations are of the order of 30 μM\n(§2) In order to rule out an antagonistic effect or a direct influence of the COMPOUNDS OF THE INVENTION on the proliferation of mouse thymocytes which are used above in the LAF-test, the effect of the COMPOUNDS OF THE INVENTION on the incorporation of ^3 H-thymidine Is determined after thymocyte stimulation with recombinant human IL-1 or IL-2."}, "recombinant human IL-1": {"test_system": "recombinant human IL-1", "experiment": "Recombinant human IL-1 induced mouse thymocyte proliferation", "assay_type": "cell-based", "conditions": "75 ng/ml rh IL-1", "experimental": "as §1, §2"}, "IL-1β": {"test_system": "IL-1β", "experiment": "RIA-Kit IL-1 quantification in human monocyte cultures", "assay_type": "cell-based", "experimental": "Mononuclear cells are obtained from the blood of healthy volunteers via centrifugation and cultivated on tissue culture dishes with test compound at varying concentrations [Schnyder et al., J. Immunol., 138, 496-503 (1987)]. The non-adherent lymphocytes are removed after 4 hours by washing several times. Fresh medium, test compound and lipopolysaccharide (LPS) as stimulant are added and the monocytes incubated for further 19 hours. The pooled culture media are diluted 1:10 (v:v) with fresh medium and added to confluent rabbit chondrocytes. MP activity in the chondrocyte culture medium is assayed after a further 2 days. COMPOUNDS OF THE INVENTION, in particular compounds D2 and K1, are active in suppressing monokine release in the above test method at concentrations of the order of from about 30 to about 100 μM. Thus determined ED50 S for the compounds D2 and K1 each in substantially pure Z-isomeric form in a series of 3 or 7 separate experiments each with 3 parallel determinations are, for both compounds, of the order of 60 to 100 μM.\nThe procedures of example 1.1.b. above are repeated and IL-1 concentrations in recovered, undiluted culture medium determined employing a CISTRON IL-1 radioimmuno assay kit (the CISTRON kit is obtainable from Cistron, 10, Bloomfield Avenue, P.O. Box 2004, Pine Brook, NJ 07 058 USA. It is IL-1β specific and recognises both intra- and extra-cellular material)."}, "monocytes": {"test_system": "monocytes", "experiment": "Effect on monocyte adherence", "assay_type": "cell-based, human", "conditions": "4 h; DNA and LDH of adherent monocytes", "experimental": "Monocytes of freshly harvested human mononuclear cells are prepared in presence of the compound to be tested or a vehicle. After 4 h the medium is aspirated and the cell monolayer is washed as usual. The adherent monocytes are then lysed using digitonin in water, and the amount of DNA and the activity of the cytosol enzyme LDH is measured."}, "lysozyme": {"test_system": "lysozyme", "experiment": "Secretion of lysozyme from human monocytes", "assay_type": "cell-based", "conditions": "human monocyte culture media", "experimental": "Culture media from human monocytes are prepared as disclosed above. Lysozyme and lactate dehydrogenase (LDH) are monitored kinetically by using a Twinreader (Flow Laboratories AG) linked to a personal computer. Samples (50 μl) for LOH are mixed with 200 μl substrate mixture, containing in final concentrations 50 mM phosphate buffer, pH 7.5, 0.8 mM sodium pyruvate, 0.24 mM NADH and 0.04 % bovine albumin and the changes in absorbance at 340 nm are measured 11 times at 1-min intervals. The computer calculates the initial velocities which are used to determine the units. Samples (50 μl) for lysozyme are mixed with 100 μl suspension of 1.2 mg/ml M. Lysodeikticus in 67 mM phosphate buffer pH 6.2 and the changes in turbidity at 492 nm monitored 11 times at 4-min intervals. With every assay series, a calibration curve is made with crystalline hen egg-white lysozyme [J. Schnyder et.al., J. Exp. Med. 148, 435 (1978)]. No significant leakage of LDH from control and treated cell cultures is observed."}, "adjuvant arthritis": {"test_system": "adjuvant arthritis", "experiment": "Disease modifying activity in an animal model of rheumatoid arthritis (adjuvant arthritis)", "assay_type": "in vivo, rat", "conditions": "substantially pure Z-isomeric form", "experimental": "Following induction of adjuvant arthritis in 48 adult female rats, the test compound is administered orally for 40 days. Articular swelling and bone densitometry are measured at days 10, 20, 30 and 40 and compared with control animals receiving placebo. In addition, cartilage glycosaminoglycans (GAG) are measured in femoral condyles removed on completion of the treatment period. α2 -Macroglobulin is determined in serum on days 0, 3, 6, 9, 16 and 22.\nThe procedure for in vivo estimation of bone density in adult rats as used in the above test method is based on the radiographic densitometric method described by Albanese et al. in J. Amer. Ger. Soc. 17, 142-153 (1969). A longitudinal bone survey is conducted in the arthritic rats during the treatment with the test substance and compared with untreated arthritic rats and control animals. In vivo quantitative radiographic scanning is performed taking the trabecular mass as the parameter. […] Because of the characteristics of the system (image darkening representing increased Relative Optical Density) the recorded values are expressed as (1-x) where x Is the experimentally measured ROD in order to conform to the biological effect of X-rays on bone tissue (i.e. film darkening indicates decrease in bone density). […]"}, "[2]": {"experiment": "Acute toxicity (LD50) in rats", "conditions": "rat, in vivo, substantially pure Z-isomeric form"}, "[3]": {"conditions": "3H-thymidine incorporation, mouse thymocytes"}, "[4]": {"conditions": "CISTRON IL-1 radioimmuno assay, human monocytes"}},
  "data": [
    {"smiles": "COC1=Cc2ccccc2/C(=C/C(=O)O)c2ccsc21", "note": "[Compound D2, [10-Methoxy-4H-benzo[4,5]cyclohepta[1,2-b]thiophen-4-ylidene]-acetic acid]", "values": [
      {"measurement": "IC50", "setting": "[1]", "value": "~100", "unit": "µM"},
      {"measurement": "concentration dependency of influence on rh IL-2 induced proliferation", "setting": "recombinant human IL-2", "value": "no concentration dependency is detectable"},
      {"measurement": "influence on recombinant human IL-2 induced proliferation", "setting": "recombinant human IL-2; [3]", "value": "no significant influence"},
      {"measurement": "concentration dependency of influence on rh IL-1 induced proliferation", "setting": "recombinant human IL-1", "value": "no concentration dependency is detectable"},
      {"measurement": "influence on recombinant human IL-1 induced proliferation", "setting": "recombinant human IL-1; [3]", "value": "no significant influence"},
      {"measurement": "extra-cellular IL-1 level", "setting": "IL-1β; [4]", "value": "extra-cellular content is reduced significantly"},
      {"measurement": "intracellular IL-1 level", "setting": "IL-1β; [4]", "value": "remain substantially unaffected"},
      {"measurement": "IC50", "setting": "IL-1β; Homo sapiens, Monocyte, 19 h, substantially pure Z-isomeric form, 2-8 experiments, 3 parallel determinations, read-out: ED50 for extra-cellular IL-1 level suppression", "value": "~40", "unit": "µM"},
      {"measurement": "adherence of the monocytes", "setting": "monocytes", "value": "neither the COMPOUNDS OF THE INVENTION, in particular compound D2, nor the vehicle reduce the adherence of the monocytes"},
      {"measurement": "release of lysozyme", "setting": "lysozyme", "value": "reduces the release of lysozyme only marginally and not under the level of unstimulated controls"},
      {"measurement": "protective effect on cartilage and bone", "setting": "adjuvant arthritis; rats with adjuvant arthritis", "value": "show a protective effect on cartilage and bone in rats with adjuvant arthritis"},
      {"measurement": "disease modifying activity", "setting": "adjuvant arthritis; especially after 30 days treatment", "value": "exhibit disease modifying activity especially after a period of 30 days treatment"},
      {"measurement": "LD50 at 168 h", "setting": "[2]; iv, 7 days", "value": 50, "unit": "mg/kg"},
      {"measurement": "LD50 at 336 h", "setting": "[2]; po, 14 days", "value": 1720, "unit": "mg/kg"}
    ]}
  ]
}
